Test results as given in US8178506B2, “Oligomeric compounds and compositions for use in modulation of small non-coding RNAs” (Regulus Therapeutics Inc., priority 2003, dated 2012).
In the oligonucleotide strings, read from the 5' end, every base follows the letter of its sugar. An asterisk marks phosphorothioate; unmarked linkages are phosphodiester. Other units and linkages are bracketed, terminal groups are in braces. A string of capitals states the bases alone. e = 2'-O-(2-methoxyethyl) (MOE); [5mC] = 5-methylcytosine; d = 2'-deoxy (DNA)

Legend:
T47D cells = assay: Caspase-3 activity assay (apoptosis) in T47D cells; conditions: T47D cells, 200 nM, 48 hours, relative to untreated control
mir-21 miRNA = assay: pGL3-mir-21 sensor luciferase assay in HeLa cells; format: cell-based, human
Description: In order to assess the ability of miRNAs to bind predicted miRNA binding sites and regulate the expression of the luciferase reporter, in some embodiments, expression systems based on the pGL3-Control (Promega Corp., Madison Wis.) reporter vector and comprising either a mir-15a, mir-21, or a mir-23b miRNA binding site were developed and used in transient transfections of HeLa cells to determine whether the endogenous mir-15a, mir-21, or mir-23b miRNAs, respectively, could repress luciferase reporter gene expression.
The pGL3-mir-21 sensor plasmid was created by cloning the sequence ([…]; SEQ ID NO: 335), representing a sequence complementary to the mir-21 miRNA, into the Xba site of the pGL3-Control plasmid, placing the potential miRNA-binding site in the 3′UTR of the luciferase reporter. This reporter plasmid was used to transfect HeLa cells and it was observed that the endogenous mir-21 miRNA was able to inhibit luciferase expression from the pGL3-mir-21 sensor plasmid. Thus, to further evaluate the ability of the mir-21 miRNA to bind this target site encoded by the pGL3-mir-21 sensor plasmid, and to assess the ability of oligomeric compounds to interfere with mir-21-mediated silencing, pGL3-mir-21 sensor-expressing HeLa cells were treated with varying concentrations (10 nM or 50 nM) of the following oligomeric compounds: ISIS Number 327917 (SEQ ID NO: 335), a phosphorothioate uniform 2′-MOE oligomeric compound; ISIS Number 338697 ([…]; herein incorporated as SEQ ID NO: 524), a uniform 2′-MOE oligomeric compound targeting the mir-21 pri-miRNA molecule; and ISIS Number 328415 (SEQ ID NO: 524), a 2′-MOE 5-10-5 gapmer oligomeric compound targeting the mir-21 pri-miRNA. The uniform 2′-MOE phosphorothioate oligomeric compound ISIS Number 327901 (SEQ ID NO: 319) targeting an unrelated miRNA (mir-143) was used as a negative control. The data are the average of three trials and are presented in Table 44 as percent untreated control (luciferase plasmid only, not treated with oligomeric compound) luciferase expression, normalized to pRL-CMV levels.
In one embodiment, the oligomeric compounds ISIS Number 327917 (SEQ ID NO: 335), the phosphorothioate uniform 2′-MOE targeting mature mir-21; ISIS Number 358768 (SEQ ID NO: 918), the uniform 2′-MOE targeting the mir-21 pri-miRNA which stimulated the largest increase in pri-miRNA expression levels by real time quantitative RT-PCR; and ISIS Number 345382 (SEQ ID NO: 335), the 5-10-7 phosphorothioate 2′-MOE gapmer targeting mature mir-21 were selected for dose response studies in HeLa cells using the luciferase reporter system described in Example 27. ISIS Number 342683 (SEQ ID NO: 790), representing the scrambled nucleotide sequence of an unrelated PTP1B antisense oligonucleotide, was used as a negative control. HeLa cells expressing the pGL3-mir-21 sensor plasmid (described in Example 27) were treated with 1.9, 5.5, 16.7, and 50 nM of these oligomeric compounds, to assess the ability of oligomeric compounds to interfere with endogenous mir-21-mediated silencing of the pGL3-mir-21 sensor plasmid. The data are presented in Table 50 as percent untreated control (luciferase plasmid only, not treated with oligomeric compound) luciferase expression, normalized to pRL-CMV levels.

IL-12 mRNA = IL-12 mRNA in LPS-activated primary murine macrophages; format: cell-based, mouse; conditions: LPS, average of 3 treatments
IL-6 mRNA = IL-6 mRNA in LPS-activated primary murine macrophages; format: cell-based, mouse; conditions: average of 3 treatments
Procedure: To investigate the role of miRNAs in the immune response, oligomeric compounds of the present invention targeting miRNAs were tested for their effects upon lipopolysaccharide (LPS)-activated primary murine macrophages. Macrophages participate in the immune response, for example, in the recognition and phagocytosis of microorganisms, including bacteria. Interferon-gamma (IFN-gamma) released by helper T cells is one type of signal required for macrophage activation, and LPS can serve as an additional stimulus. LPS is a component of the gram-negative bacterial cell wall and acts as an agonist for toll-like receptor 4 (TLR4), the primary LPS receptor expressed by macrophages. The proinflammatory cytokines interleukin-12 (IL-12) and interleukin-6 (IL-6) are induced by LPS treatment of macrophages, thus the expression of the mRNAs encoding these cytokines was used to evaluate the response of macrophages to LPS following treatment with oligomeric compounds targeting miRNAs.
Macrophages were isolated as follows. Female C57B1/6 mice (Charles River Laboratories, Wilmington, Mass.) were injected intraperitoneally with 1 ml 3% thioglycollate broth (Sigma-Aldrich, St. Louis, Mo.), and peritoneal macrophage cells were isolated by peritoneal lavage 4 days later. The cells were plated in 96-well plates at 40,000 cells/well for one hour in serum-free RPMI adjusted to contain 10 mM HEPES (Invitrogen Life Technologies, Carlsbad, Calif.), allowed to adhere, then non-adherent cells were washed away and the media was replaced with RPMI containing 10 mM HEPES, 10% FBS and penicillin/streptomycin (“complete” RPMI; Invitrogen Life Technologies, Carlsbad, Calif.).
Oligomeric compounds were introduced into the cells using the non-liposomal transfection reagent FuGENE 6 Transfection Reagent (Roche Diagnostics Corp., Indianapolis, Ind.). Oligomeric compound was mixed with FuGENE 6 in 1 mL of serum-free RPMI to achieve a concentration of 10 μL FuGENE per 1000 nM oligomeric compound. The oligomeric compound/FuGENE complex was allowed to form at room temperature for 20 minutes. This mixture was diluted to the desired concentration of oligomeric compound by the addition of the appropriate volume of complete RPMI. The final ratio of FuGENE 6 to oligomeric compound was 1 μL of FuGENE 6 per 100 nM oligomeric compound. A volume of 100 μL of oligomeric compound/FuGENE/RPMI was added to each well of the 96-well plate in which the macrophages were cultured. Each oligomeric compound treatment was repeated in triplicate.
Following oligomeric compound treatment, cells were stimultated with LPS. Cells were cultured in the presence of the transfection complex for approximately 24 to 28 hours at 37° C. and 5% CO2, after which the medium containing the transfection complex was removed from the cells, and complete RPMI containing 100 ng/mL LPS (Sigma-Aldrich Corp., St. Louis, Mo.) was added to the cells for a period of approximately 24 hours. Control samples included (1) cells receiving no oligomeric compound, stimulated with LPS and (2) cells receiving neither oligomeric compound nor LPS treatment.
In another embodiment, following oligomeric compound treatment, cells were first activated by IFN-gamma, to amplify the response to LPS. Cells were cultured in the presence of the transfection complex for approximately 24 hours at 37° C. and 5% CO2, at which point the medium containing the transfection complex was removed from the cells, and complete RPMI containing 100 ng/mL recombinant mouse IFN-gamma (R&D Systems, Minneapolis, Minn.) was added to the cells. After the 4 hour treatment with INF-gamma, cells were treated with 100 ng/mL LPS for approximately 24 hours. Control samples included (1) cells receiving no oligomeric compound, stimulated with LPS and (2) cells receiving neither oligomeric compound nor LPS treatment. […]

mir-21 pri-miRNA = mir-21 pri-miRNA expression in HeLa cells (real-time RT-PCR); format: cell-based, human; conditions: HeLa cells, 100 nM, real-time RT-PCR
Procedure: In one embodiment, the expression of mir-21 (noted to be expressed at high levels in HeLa cells) was assessed in cells treated with oligomeric compounds. Using the transfection methods previously described, HeLa cells were treated with 100 nM of the uniform 2′-MOE oligomeric compound ISIS Number 327917 (SEQ ID NO: 335) targeting the mir-21 mature miRNA. Total RNA was isolated by lysing cells in 1 mL TRIZOL™ (Invitrogen) using the manufacturer's recommended protocols. […] Real-time RT-PCR analysis was also performed on HeLa cells treated with ISIS 327917 using a primer/probe set specific for the mir-21 pri-miRNA molecule [forward primer=ISIS 339332 ([…]; herein incorporated as SEQ ID NO.: 911), reverse primer-ISIS 339333 (TCGACTGGTGTTGCCATGA; herein incorporated as SEQ ID NO.: 912), and probe=ISIS 339334 ([…]; herein incorporated as SEQ ID NO.: 913)]. Total RNA was quantified using RiboGreen™ RNA quantification reagent (Molecular Probes, Inc. Eugene, Oreg.), expression levels observed for the target were normalized to 5.8S rRNA, and values were expressed relative to an untreated control (UTC).
Using the real-time RT-PCR methods, the expression levels of the mir-21 pri-miRNA were compared in HeLa cells treated with this nested series of uniform 2′-MOE oligomeric compounds, targeting and spanning the entire length of the mir-21 pri-miRNA. ISIS Number 358768 (SEQ ID NO: 918) targets a region flanking the predicted 5′ Drosha cleavage site in the mir-21 pri-miRNA. ISIS Number 358777 (SEQ ID NO: 927) targets a region spanning the 3′ Drosha cleavage site in the mir-21 pri-miRNA. ISIS 358779 (SEQ ID NO: 929) targets a region flanking the predicted 3′ Drosha cleavage site in the mir-21 pri-miRNA. Additionally, oligomeric compounds ISIS 327917 (SEQ ID NO: 335), a uniform 2′-MOE compound targeting the mature mir-21 miRNA, and ISIS 345382 ([…]; SEQ ID NO: 335), a 5-10-7 phosphorothioate 2′-MOE gapmer targeting mir-21, were tested for comparison. Oligomeric compound ISIS 327863 ([…]; herein incorporated as SEQ ID NO: 936), a phosphorothioate 5-10-52′-MOE gapmer, was used as scrambled control. […] Total RNA was isolated by lysing cells in 1 mL TRIZOL™ (Invitrogen) using the manufacturer's recommended protocols. real-time RT-PCR analysis was performed using the primer/probe set specific for the mir-21 pri-miRNA molecule [forward primer=ISIS 339332 (SEQ ID NO.: 911), reverse primer-ISIS 339333 (SEQ ID NO.: 912), and probe=ISIS 339334 (SEQ ID NO.: 913)]. Total RNA was quantified using RiboGreen™ RNA quantification reagent (Molecular Probes, Inc. Eugene, Oreg.), expression levels observed for each target were normalized to 5.8S rRNA, and values were expressed relative to the untreated control (UTC). Effects on expression of the mir-21 pri-miRNA molecule resulting from treatment of HeLa cells with these uniform 2′-MOE oligomeric compounds is expressed as a percentage of RNA levels in untreated control cells.

[1] = Table 44, pGL3-mir-21 sensor-expressing HeLa cells, 10 nM
[2] = Table 44, pGL3-mir-21 sensor-expressing HeLa cells, 50 nM
[3] = Table 50, pGL3-mir-21 sensor-expressing HeLa cells, 1.9 nM, normalized to pRL-CMV
[4] = Table 50, pGL3-mir-21 sensor-expressing HeLa cells, 5.5 nM, normalized to pRL-CMV
[5] = Table 50, pGL3-mir-21 sensor-expressing HeLa cells, 16.7 nM, normalized to pRL-CMV
[6] = Table 50, pGL3-mir-21 sensor-expressing HeLa cells, 50 nM, normalized to pRL-CMV

328415 (antisense eT*eG*e[5mC]*e[5mC]*eA*dT*dG*dA*dG*dA*dT*dT*d[5mC]*dA*dA*e[5mC]*eA*eG*eT*e[5mC]) [compound 328415]
Fold Increase over UTC (caspase activity) (T47D cells): 1.1
luciferase expression % UTC (mir-21 miRNA; [1]): 66.0 % UTC
luciferase expression % UTC (mir-21 miRNA; [2]): 104.4 % UTC

338697 (antisense TGCCATGAGATTCAACAGTC; all 2'-MOE, all phosphorothioate, methylation of C not given here) [compound 338697]
luciferase expression % UTC (mir-21 miRNA; [1]): 87.0 % UTC
luciferase expression % UTC (mir-21 miRNA; [2]): 84.8 % UTC

342683 (antisense CCTTCCCTGAAGGTTCCTCCTT; scrambled control, further chemistry not given here) [compound 342683]
IL-12 mRNA expression, % UTC (IL-12 mRNA; 75 nM, +IFN): 92 % UTC
IL-12 mRNA expression, % UTC (IL-12 mRNA; 75 nM, −IFN): 121 % UTC
IL-12 mRNA expression, % UTC (IL-12 mRNA; 150 nM, +IFN): 76 % UTC
IL-12 mRNA expression, % UTC (IL-12 mRNA; 150 nM, −IFN): 165 % UTC
IL-12 mRNA expression, % UTC (IL-12 mRNA; 300 nM, +IFN): 65 % UTC
IL-12 mRNA expression, % UTC (IL-12 mRNA; 300 nM, −IFN): 147 % UTC
IL-12 mRNA expression, % UTC (IL-12 mRNA; 600 nM, +IFN): 64 % UTC
IL-12 mRNA expression, % UTC (IL-12 mRNA; 600 nM, −IFN): 130 % UTC
IL-6 mRNA expression, % UTC (IL-6 mRNA; 75 nM, +IFN): 115 % UTC
IL-6 mRNA expression, % UTC (IL-6 mRNA; 75 nM, −IFN): 135 % UTC
IL-6 mRNA expression, % UTC (IL-6 mRNA; 150 nM, +IFN): 86 % UTC
IL-6 mRNA expression, % UTC (IL-6 mRNA; 150 nM, −IFN): 161 % UTC
IL-6 mRNA expression, % UTC (IL-6 mRNA; 300 nM, +IFN): 110 % UTC
IL-6 mRNA expression, % UTC (IL-6 mRNA; 300 nM, −IFN): 156 % UTC
IL-6 mRNA expression, % UTC (IL-6 mRNA; 600 nM, +IFN): 149 % UTC
IL-6 mRNA expression, % UTC (IL-6 mRNA; 600 nM, −IFN): 311 % UTC
luciferase expression % UTC (mir-21 miRNA; [3]): 127 % UTC
luciferase expression % UTC (mir-21 miRNA; [4]): 171 % UTC
luciferase expression % UTC (mir-21 miRNA; [5]): 104 % UTC
luciferase expression % UTC (mir-21 miRNA; [6]): 108 % UTC

345382 (TCAACATCAGTCTGATAAGCTA; sugars from the 5' end e5 d10 e7, all phosphorothioate, methylation of C not given here) [compound 345382]
mir-21 pri-miRNA expression % UTC (mir-21 pri-miRNA): 119 % UTC
luciferase expression % UTC (mir-21 miRNA; [3]): 101 % UTC
luciferase expression % UTC (mir-21 miRNA; [4]): 135 % UTC
luciferase expression % UTC (mir-21 miRNA; [5]): 117 % UTC
luciferase expression % UTC (mir-21 miRNA; [6]): 95 % UTC
